Patent US20120095185A1, “PROCESS FOR CHELATING COPPER IONS USING CB-TE2A BIFUNCTIONAL CHELATE” (NORDION (CANADA) INC., priority 2010, published 2012)

What was measured:
[1] = Conversion of isomer F1 (12b) to F2 (12a) in chloroform, followed by 13C-NMR; format: physicochemical; details: 14 days at room temperature
Excerpt: FIG. 7A illustrates the aliphatic region of the ^13C-NMR spectrum of the F1 isomer (12b) in CDCl3 (bottom) and the aliphatic region of the ^13C-NMR spectrum of the F2 isomer (12a) in CDCl3 (top). FIG. 7B illustrates the aliphatic region of the ^13C-NMR spectra of the F1 isomer (12b) in CDCl3 at 0 days, 2 days, 6 days, 9 days and 14 days, showing that the F1 isomer (12b) slowly converts to the F2 isomer (12a).
After 14 days at room temperature, the conversion 12b (F1) to 12a (F2) was approximately 50% complete.

[2] = Optimisation of Cu-64 radiolabeling of 13a and 13b to >95% radiochemical yield; details: depends on CB-TE2A BFC concentration
Excerpt: As used herein, the terms “degree of complexation” and “percent complexation” are used interchangeably and are defined to mean the percentage of the ion that is successfully complexed with the bifunctional chelate. Here percent complexation is expressed as radiochemical yield, which is the yield of radiolabeled complex expressed as a fraction of the radioactivity originally present. The value of radiochemical yield obtained when making the ion complexes of the present reaction can be greater than 90% or greater than 95%, as measured by reverse phase chromatography (HPLC).
The conditions required to radiolabel 13a and 13b with Cu-64 in >95% radiochemical yield were optimized for pH, temperature and reaction time (Table 1). The exact same radioisotope lot, buffer solutions, and conditions were used for the reaction and the analysis of both 13a and 13b.
Cu-64 radiolabeled 13a and 13b are distinct species with different retention times by HPLC. The analysis was conducted with a Phenomenex hydrosynergy RPC18 column (4.6×150 mm) using a gradient of 98% trifluoracetic acid in water (0.01% v/v) 2% acetonitrile to 50% trifluoracetic acid in water (0.01% v/v) 50% acetonitrile over 30 min at 1 mL/min.

Compound	Conversion 12b (F1) to 12a (F2) [1]	Reaction time [2]
CCOC(=O)CN1CCCN2CCN(CCCN(C(CCc3ccc([N+](=O)[O-])cc3)C(=O)OC)CC2)CC1 (stereo not drawn) [12b, methyl 2-(11-(2-ethoxy-2-oxoethyl)-1,4,8,11-tetraazabicyclo[6.6.2]hexadecan-4-yl)-4-(4-nitrophenyl)butanoate]	approximately 50%	
O=C(O)CN1CCCN2CCN(CCCN(C(CCc3ccc([N+](=O)[O-])cc3)C(=O)O)CC2)CC1 (stereo not drawn) [13a]		10-30 minutes depending on
O=C(O)CN1CCCN2CCN(CCCN(C(CCc3ccc([N+](=O)[O-])cc3)C(=O)O)CC2)CC1 (stereo not drawn) [13b]		60 min
